Results from US6638953B2, “Indole derivatives as 5-HT receptor antagonist” (SmithKline Beecham p.l.c., priority 1995, dated 2003).

Assays:
[1] = system: MCPP-induced Hypolocomotion; assay: Reversal of MCPP-induced hypolocomotion; type: in vivo; details: po, procedure of WO 94/04533, read-out: ID50 (the source's name)
Excerpt: Reversal of MCPP-induced Hypolocomotion

Compound	ED50 [1]	melting point
COc1cc2c(cc1C(F)(F)F)N(C(=O)Nc1cccc(-c3cccnc3)c1)CC2 [Example 1]	0.5 to 5.5 mg/kg	
Cc1cc2c(cc1C(F)(F)F)N(C(=O)Nc1cccc(-c3cccnc3)c1)CC2 [Example 103]		208 to 210 °C
C=Cc1cc(NC(=O)N2CCc3cc(OC)c(C(F)(F)F)cc32)cc(-c2cccnc2)c1 [Example 104]		138 to 140 °C
COc1cc2c(cc1C(F)(F)F)N(C(=O)Nc1cc(-c3cccnc3)cc(C(F)(F)F)c1)CC2 [Example 105]		220 to 222 °C
COc1cc2c(cc1C(F)(F)F)N(C(=O)Nc1cc(Cl)cc(-c3cccnc3)c1)CC2 [Example 106]		183 to 185 °C
COc1cc2c(cc1C(F)(F)F)N(C(=O)Nc1cc(C(C)=O)cc(-c3cccnc3)c1)CC2 [Example 107]		174 to 176 °C
COc1cc2c(cc1C(F)(F)F)N(C(=O)Nc1cc(-c3cccnc3)c(OC)c(C(F)(F)F)c1)CC2 [Example 108]		180 to 181 °C
COc1cc2c(cc1C(F)(F)F)N(C(=O)Nc1ccc(C)c(-c3cnccc3C)c1)CC2 [Example 109]		153 to 155 °C
COc1cc2c(cc1C(F)(F)F)N(C(=O)Nc1cccc(-c3cccnc3C)c1)CC2 [Example 110]		179 to 180 °C
COc1cc2c(cc1C(F)(F)F)N(C(=O)Nc1cccc(-c3c(C)ccnc3C)c1)CC2 [Example 111]		202 to 204 °C
COc1cc2c(cc1C(F)(F)F)N(C(=O)Nc1cccc(-c3ccc(C)nc3)c1)CC2 [Example 112]		228 to 230 °C
COc1cc2c(cc1C(F)(F)F)N(C(=O)Nc1cccc(-c3ccnc(C)n3)c1)CC2 [Example 113]		> 220 °C
COc1cc2c(cc1C(F)(F)F)N(C(=O)Nc1cc(-c3cccnc3)cc(-c3cccnc3)c1)CC2 [Example 114]		155 to 156 °C
COc1cc2c(cc1C(F)(F)F)N(C(=O)Nc1cc(-c3ccncc3)cc(-c3cccnc3)c1)CC2 [Example 115]		153 to 154 °C
COc1cc2c(cc1C(F)(F)F)N(C(=O)Nc1cc(F)cc(-c3ccc(C)nc3)c1)CC2 [Example 116]		213 to 215 °C
COc1cc2c(cc1C(F)(F)F)N(C(=O)Nc1cccc(-c3cnc(C)cc3C)c1)CC2 [Example 117]		161 to 162 °C
COc1cc2c(cc1C(F)(F)F)N(C(=O)Nc1cc(F)cc(-c3cccnn3)c1)CC2 [Example 118]		230 to 231 °C
COc1cc2c(cc1C(F)(F)F)N(C(=O)Nc1cccc(-c3cncnc3)c1)CC2 [Example 119]		245 to 250 °C
COc1cc2c(cc1C(F)(F)F)N(C(=O)Nc1cccc(-c3cnccn3)c1)CC2 [Example 120]		208 to 209 °C
COc1cc2c(cc1C(F)(F)F)N(C(=O)Nc1cccc(-c3ccc(C)nn3)c1)CC2 [Example 121]		229 to 231 °C
COc1cc2c(cc1C(F)(F)F)N(C(=O)Nc1cc(OC(F)(F)F)cc(-c3cccnc3)c1)CC2 [Example 122]		168 to 170 °C
COc1cc2c(cc1C(F)(F)F)N(C(=O)Nc1ccc(OC(F)(F)F)c(-c3cccnc3)c1)CC2 [Example 123]		99 to 100 °C
COc1cc2c(cc1C(F)(F)F)N(C(=O)Nc1cc(F)c(C)c(-c3cccnc3)c1)CC2 [Example 124]		244 to 247 °C
COc1cc2c(cc1C(F)(F)F)N(C(=O)Nc1cc(F)cc(-c3cccnc3C)c1)CC2 [Example 125]		204 to 205 °C

Compound	ED50 [1]	melting point
COc1cc2c(cc1C(F)(F)F)N(C(=O)Nc1cc(F)cc(-c3cnccn3)c1)CC2 [Example 126]		230 to 231 °C
COc1cc2c(cc1C(F)(F)F)N(C(=O)Nc1cc(F)cc(-c3cnc(C)cc3C)c1)CC2 [Example 127]		215 to 218 °C
COc1cc2c(cc1C(F)(F)F)N(C(=O)Nc1cc(F)c(C)c(N3C=CC=NC3)c1)CC2 [Example 128]		188 to 189 °C
Cc1cc2c(cc1Cl)N(C(=O)Nc1cc(F)c(C)c(-c3cccnc3)c1)CC2 [Example 129]		233 to 235 °C
COc1cc2c(cc1C(F)(F)F)N(C(=O)Nc1cncc(-c3cncnc3)c1)CC2 [Example 130]		120 to 121 °C
Cc1cc2c(cc1Cl)N(C(=O)Nc1cc(F)cc(-c3cnccn3)c1)CC2 [Example 131]		226 to 227 °C
Cc1cc2c(cc1Cl)N(C(=O)Nc1cc(F)cc(-c3cncnc3)c1)CC2 [Example 132]		222 to 226 °C
Cc1cc2c(cc1Cl)N(C(=O)Nc1cc(F)cc(-c3cccnc3C)c1)CC2 [Example 134]		205 to 206 °C
O=C(Nc1ccc(F)c(-c2cccnc2)c1)N1CCc2cc(Cl)c(Cl)cc21 [Example 135]		200 to 202 °C
Cc1cc2c(cc1Cl)N(C(=O)Nc1ccc(F)c(-c3cccnc3)c1)CC2 [Example 136]		185 to 186 °C
COc1cc2c(cc1C(F)(F)F)N(C(=O)Nc1cccc(OCc3cccnc3)c1)CC2 [Example 137]		202 to 204 °C
COc1cc2c(cc1C(F)(F)F)N(C(=O)Nc1ccc(OCc3cccnc3)cc1)CC2 [Example 138]		215 to 217 °C
COc1cc2c(cc1C(F)(F)F)N(C(=O)Nc1cccc(COc3cccnc3)c1)CC2 [Example 139]		188 to 190 °C
COc1cc2c(cc1C(F)(F)F)N(C(=O)Nc1cnc(-c3cccnc3)c(C)c1)CC2 [Example 140]		230 to 232 °C
CSc1cc2c(cc1C(F)(F)F)N(C(=O)Nc1cnc(-c3cccnc3)c(Cl)c1)CC2 [Example 141]		245 to 250 °C
CSc1cc2c(cc1C(F)(F)F)N(C(=O)Nc1ccc(-c3cncc(Cl)c3)nc1)CC2 [Example 142]		193 to 195 °C
COc1cc2c(cc1C(F)(F)F)N(C(=O)Nc1ccc(Oc3cccnc3)cc1)CC2 [Example 143]		193 to 194 °C
CSc1cc2c(cc1C(F)(F)F)N(C(=O)Nc1ccc(Sc3cccnc3)nc1)CC2 [Example 144]		204 to 206 °C
CSc1cc2c(cc1C(F)(F)F)N(C(=O)Nc1ccc(Sc3ccncc3)nc1)CC2 [Example 145]		214 to 216 °C
COc1cc2c(cc1C(F)(F)F)N(C(=O)Nc1ccc(Sc3ccncc3)nc1)CC2 [Example 146]		204 to 206 °C
CSc1cc2c(cc1C(F)(F)F)N(C(=O)Nc1ccc(Cc3ccncc3)cc1)CC2 [Example 147]		206 to 209 °C
CSc1cc2c(cc1C(F)(F)F)N(C(=O)Nc1cccc(C(=O)NCc3cccnc3)c1)CC2 [Example 148]		210 to 215 °C
CSc1cc2c(cc1C(F)(F)F)N(C(=O)Nc1cccc(C(=O)CCc3ccccn3)c1)CC2 [Example 149]		145 to 146 °C
CSc1cc2c(cc1C(F)(F)F)N(C(=O)Nc1cccc(C(O)CCc3ccccn3)c1)CC2 (centres unmarked) [Example 150]		78 to 80 °C

Compound	ED50 [1]	melting point
CSc1cc2c(cc1C(F)(F)F)N(C(=O)Nc1ccc(C(=O)NCc3ccncc3)cc1)CC2 [Example 151]		138 to 140 °C
CSc1cc2c(cc1C(F)(F)F)N(C(=O)Nc1cccc(C(=O)NCCc3ccccn3)c1)CC2 [Example 153]		92 to 94 °C
CSc1cc2c(cc1C(F)(F)F)N(C(=O)Nc1cccc(C(=O)NCc3ccccn3)c1)CC2 [Example 154]		116 to 118 °C
COc1cc2c(cc1C(F)(F)F)N(C(=O)Nc1ccc(Oc3ccccc3)nc1)CC2 [Example 155]		202 to 203 °C
COc1cc2c(cc1C(F)(F)F)N(C(=O)Nc1ccc(Oc3c(C)ccnc3C)nc1)CC2 [Example 156]		218 to 221 °C
COc1cc2c(cc1C(F)(F)F)N(C(=O)Nc1ccc(Oc3ccccc3C)nc1)CC2 [Example 157]		226 to 228 °C
COc1cccc(Oc2ccc(NC(=O)N3CCc4cc(OC)c(C(F)(F)F)cc43)cn2)c1 [Example 158]		188 to 189 °C
COc1cc2c(cc1C(F)(F)F)N(C(=O)Nc1ccc(Oc3ccc(F)cc3C)nc1)CC2 [Example 159]		208 to 209 °C
COc1cc2c(cc1C(F)(F)F)N(C(=O)Nc1ccc(Oc3ccc(C)cc3C)nc1)CC2 [Example 160]		236 to 238 °C
COc1cc2c(cc1C(F)(F)F)N(C(=O)Nc1ccc(Oc3cccnc3Cl)nc1)CC2 [Example 161]		238 to 240 °C
CCc1ccccc1Oc1ccc(NC(=O)N2CCc3cc(OC)c(C(F)(F)F)cc32)cn1 [Example 162]		215 to 220 °C
COc1cc2c(cc1C(F)(F)F)N(C(=O)Nc1ccc(Oc3ccc(C(N)=O)cc3)nc1)CC2 [Example 163]		245 to 248 °C
COc1cc2c(cc1C(F)(F)F)N(C(=O)Nc1ccc(Oc3ccccc3C(F)(F)F)nc1)CC2 [Example 164]		237 to 238 °C
COc1cc2c(cc1C(F)(F)F)N(C(=O)Nc1ccc(Oc3cccc(C(F)(F)F)c3)nc1)CC2 [Example 165]		193 to 194 °C
COc1cc2c(cc1C(F)(F)F)N(C(=O)Nc1ccc(Oc3ccc(C)nc3C)nc1)CC2 [Example 166]		230 to 233 °C
Cc1ncccc1Oc1ccc(NC(=O)N2CCc3cc(Cl)c(Cl)cc32)cn1 [Example 168]		225 to 228 °C
O=C(Nc1ccc(F)c(-c2cncnc2)c1)N1CCc2cc(Cl)c(Cl)cc21 [Example 169]		132 to 135 °C
O=C(Nc1cc(F)cc(-c2cncnc2)c1)N1CCc2cc(Cl)c(Cl)cc21 [Example 170]		260 °C
Cc1cc2c(cc1Cl)N(C(=O)Nc1ccc(F)c(-c3cncnc3)c1)CC2 [Example 171]		211 to 213 °C
O=C(Nc1cc(F)cc(-c2cncnc2)c1)N1CCc2cc(Br)c(C(F)(F)F)cc21 [Example 172]		214 to 218 °C
O=C(Nc1ccc(F)c(-c2cccnc2)c1)N1CCc2cc(Br)c(C(F)(F)F)cc21 [Example 174]		200 to 201 °C
COc1cc2c(cc1C(F)(F)F)N(C(=O)Nc1ccc(Oc3cccc(C#N)c3)nc1)CC2 [Example 175]		136 to 138 °C
COc1cc2c(cc1C(F)(F)F)N(C(=O)Nc1ccc(Oc3ccc(C#N)cc3)nc1)CC2 [Example 176]		188 to 189 °C
